One data set has as its system MCF-7. In words: MTT anti-proliferative assay, MCF-7. Conditions: Homo sapiens, MCF7; MTT; mean ± SD of three experiments; read-out: IC50 MCF-7. Format: cell-based, human.
A further data set deals with HepG-2. The experiment in a line: MTT anti-proliferative assay, HepG-2. It counts as cell-based, human. Conditions: mean ± SD of three experiments, read-out: IC50 HepG-2. On the technique in general: Tetrazolium dyes change colour on reduction, which living cells bring about.
The next data set relates to HCT-116. In words: MTT anti-proliferative assay, HCT-116. Format: cell-based, human. The conditions noted are these: mean ± SD of three experiments, read-out: IC50 HCT-116.
Data set [1] concerns HepG-2, HCT-116, and MCF-7. The experiment in a line: MTT anti-proliferative assay, ranges stated over several cell lines. It counts as cell-based. The conditions noted are these: Homo sapiens.
[2] abbreviates: range over HepG-2, HCT-116 and MCF-7 and over the listed compounds, read-out: IC50 values ranging (all tested cell lines).

The structures appear in SMILES notation. Like-named read-outs stand apart in the source and are kept apart here.

These results are taken from PMC7889231 (Journal of Enzyme Inhibition and Medicinal Chemistry, 2021).

As a reminder, the melting point is the temperature, or range, at which the solid turns liquid. For orientation: IC50 means the concentration at which inhibition is half-maximal.

With `COc1ccc2nc(Cl)c(C3CC(c4cc(OC)c(OC)c(OC)c4)=NN3)cc2c1` (stereo not shown) [Compound 10, 2-Chloro-6-methoxy-3-[3–(3,4,5-trimethoxyphenyl)-4,5-dihydro-1H-pyrazol-5-yl]quinoline], the melting point is 114 to 115 °C. Also, in the data set on MCF-7, the IC50 was 25.1 ± 1.2 µM. For the same compound, the IC50 in the data set on HepG-2 (Homo sapiens, HepG2, MTT) was found to be 17.4 µM. Also, the IC50 in the data set on HepG-2 (MTT) turned out to be 15.4 ± 0.9 µM. Besides, in the data set on HCT-116 (Homo sapiens, HCT-116, MTT), the IC50 was determined as 15.4 µM. Further, the IC50 in the data set on HCT-116 (MTT) amounted to 17.4 ± 1.1 µM.

For the compound `COc1ccc2nc(Cl)c(/C=C/C(=O)c3cc(OC)c(OC)c(OC)c3)cc2c1` [Compound 7, (E)-3–(2-Chloro-6-methoxyquinolin-3-yl)-1–(3,4,5-trimethoxyphenyl)prop-2-en-1-one], the melting point lay in the range of 127 to 128 °C. Further, in the data set with MCF-7, the IC50 amounted to 16.9 ± 1.2 µM. In addition, the 50% inhibitory concentration (IC50) in the data set with HepG-2 (Homo sapiens, HepG2, MTT) turned out to be 23.6 ± 1.3 µM. Also, in the data set with HCT-116 (Homo sapiens, HCT-116, MTT), the IC50 was 25.1 ± 1.2 µM.

For the compound `COc1ccc2nc(Cl)c(C3CC(c4ccc(Cl)cc4)=NN3C(N)=O)cc2c1` (stereo not shown) [Compound 17, 5–(2-Chloro-6-methoxyquinolin-3-yl)-3–(4-chlorophenyl)-4,5-dihydro-1H-pyrazole-1-carboxamide], the melting point is 135 to 136 °C. Further, the IC50 in data set [1] (setting [2]) fell in the range of 10.2 to 17.6 µM. In addition, in the data set on MCF-7, the IC50 turned out to be 15.9 ± 0.6 µM. Moreover, the IC50 with HepG-2 (Homo sapiens, HepG2, MTT) turned out to be 12.7 ± 0.5 µM. In addition, the IC50 in the data set on HCT-116 (Homo sapiens, HCT-116, MTT) was 11.4 ± 0.4 µM.

`COc1ccc2nc(Cl)c(C3CC(c4ccc(N)cc4)=NN3C(N)=O)cc2c1` (stereo not shown) [Compound 18, 3–(4-Aminophenyl)-5–(2-chloro-6-methoxyquinolin-3-yl)-4,5-dihydro-1H-pyrazole-1-carboxamide] registered a melting point of 130 to 131 °C. Also, the IC50 in data set [1] (setting [2]) was in the range of 10.2 to 17.6 µM. Also, the IC50 in the data set with MCF-7 was determined as 13.7 ± 0.8 µM. In addition, the IC50 with HepG-2 (Homo sapiens, HepG2, MTT) amounted to 10.2 ± 0.4 µM. In the data set on HCT-116 (Homo sapiens, HCT-116, MTT), the IC50 came out at 10.4 ± 0.3 µM.

`COc1ccc2nc(Cl)c(C3CC(c4ccc(N)cc4)=NN3)cc2c1` (stereo not shown) [Compound 9, 4-[5–(2-Chloro-6-methoxyquinolin-3-yl)-4,5-dihydro-1H-pyrazol-3-yl]aniline]: the melting point is 122 to 123 °C. Also, in the data set on MCF-7, the IC50 amounted to 20.5 ± 1.1 µM. The IC50 with HepG-2 (Homo sapiens, HepG2, MTT) is 17.4 µM. In addition, the IC50 in the data set on HepG-2 (MTT) was determined as 16.6 ± 0.8 µM. Further, the IC50 with HCT-116 (Homo sapiens, HCT-116, MTT) turned out to be 16.6 µM. Besides, the half-maximal inhibitory concentration (IC50) with HCT-116 (MTT) amounted to 17.4 ± 1 µM.

`COc1ccc2nc(Cl)c(C3CC(c4cc(OC)c(OC)c(OC)c4)=NN3C(N)=O)cc2c1` (stereo not shown) [Compound 19, 5–(2-Chloro-6-methoxyquinolin-3-yl)-3–(3,4,5-trimethoxyphenyl)-4,5-dihydro-1H-pyrazole-1-carboxamide] came in with a melting point of 117 to 118 °C. Further, the concentration for half-maximal inhibition (IC50) in data set [1] (range over HCT-116 and MCF-7 and over the listed compounds, read-out: IC50 values ranging (HCT-116 and MCF-7)) is 6.48 to 10.3 µM. Besides, the IC50 with MCF-7 was found to be 9.04 ± 0.5 µM. For the same compound, in the data set on HepG-2 (Homo sapiens, HepG2, MTT), the IC50 amounted to 10.9 ± 0.5 µM. Moreover, in the data set with HCT-116 (Homo sapiens, HCT-116, MTT), the IC50 worked out at 7.38 ± 0.4 µM.

For `COc1ccc2nc(Cl)c(/C=C/C(=O)c3ccc(Cl)cc3)cc2c1` [Compound 5, (E)-3–(2-Chloro-6-methoxyquinolin-3-yl)-1–(4-chlorophenyl)prop-2-en-1-one], the melting point is 135 to 136 °C. In addition, in data set [1] (setting [2]), the IC50 lay in the range of 22.4 to 45.5 µM. In addition, the IC50 with MCF-7 came to 32.2 ± 2 µM. Further, the IC50 in the data set with HepG-2 (Homo sapiens, HepG2, MTT) came to 29.2 ± 1.9 µM. Besides, in the data set on HCT-116 (Homo sapiens, HCT-116, MTT), the IC50 worked out at 28.9 ± 1.7 µM.

As for `COc1ccc2nc(Cl)c(-c3cc(-c4cc(OC)c(OC)c(OC)c4)nc(N)n3)cc2c1` [Compound 31, 4–(2-Chloro-6-methoxyquinolin-3-yl)-6–(3,4,5-trimethoxyphenyl)pyrimidin-2-amine], the melting point is 162 to 163 °C. For the same compound, the IC50 in the data set on MCF-7 was 15.2 ± 0.7 µM. For the same compound, the IC50 in the data set on HepG-2 (Homo sapiens, HepG2, MTT) was 9.45 ± 0.5 µM. In the data set with HCT-116 (Homo sapiens, HCT-116, MTT), the IC50 worked out at 10.5 ± 0.4 µM.

As for `COc1ccc2nc(Cl)c(-c3cc(-c4ccc(N)cc4)nc(=S)[nH]3)cc2c1` [Compound 27, 4–(4-Aminophenyl)-6–(2-chloro-6-methoxyquinolin-3-yl)pyrimidine-2(1H)-thione], the melting point was 146 to 147 °C. In addition, the IC50 in the data set on MCF-7 came out at 24.3 ± 0.9 µM. In addition, in the data set on HepG-2 (Homo sapiens, HepG2, MTT), the IC50 is 16.3 ± 0.4 µM. In the data set with HCT-116 (Homo sapiens, HCT-116, MTT), the IC50 was 22.4 ± 0.5 µM.

With `COc1ccc2nc(Cl)c(/C=C/C(=O)c3ccc(N)cc3)cc2c1` [Compound 6, (E)-1–(4-Aminophenyl)-3–(2-chloro-6-methoxyquinolin-3-yl)prop-2-en-1-one], the melting point fell in the range of 120 to 121 °C. Further, the IC50 in data set [1] (setting [2]) lay within 22.4 to 45.5 µM. Further, the IC50 in the data set on MCF-7 turned out to be 37.3 ± 2.1 µM. For the same compound, in the data set on HepG-2 (Homo sapiens, HepG2, MTT), the IC50 was 32.9 ± 2.1 µM. The IC50 with HCT-116 (Homo sapiens, HCT-116, MTT) came to 28.6 ± 1.7 µM.

`COc1ccc2nc(Cl)c(-c3cc(-c4cc(OC)c(OC)c(OC)c4)nc(=O)[nH]3)cc2c1` [Compound 34, 6–(2-Chloro-6-methoxyquinolin-3-yl)-4–(3,4,5-trimethoxyphenyl)pyrimidin-2(1H)-one] displayed a melting point of 176 to 177 °C. The IC50 in data set [1] (setting [2]) lay in the range of 10.2 to 17.6 µM. Moreover, in the data set on MCF-7, the half-inhibitory concentration (IC50) is 15.4 ± 0.8 µM. Moreover, in the data set with HepG-2 (Homo sapiens, HepG2, MTT), the IC50 came to 15.3 ± 0.4 µM. In addition, the IC50 in the data set on HCT-116 (Homo sapiens, HCT-116, MTT) turned out to be 11.9 ± 0.4 µM.

As for `COc1ccc2nc(Cl)c(C3CC(c4ccc(Cl)cc4)=NO3)cc2c1` (stereo not shown) [Compound 11, 5–(2-Chloro-6-methoxyquinolin-3-yl)-3–(4-chlorophenyl)-4,5-dihydroisoxazole], the melting point lay in the range of 145 to 146 °C. The IC50 in the data set with MCF-7 is 22.8 ± 1.4 µM. Besides, the IC50 with HepG-2 (Homo sapiens, HepG2, MTT) came to 20.5 ± 1 µM. Besides, the IC50 in the data set on HCT-116 (Homo sapiens, HCT-116, MTT) was determined as 19.7 ± 1.3 µM.

`COc1ccc2nc(Cl)c(-c3cc(-c4ccc(Cl)cc4)nc(N)n3)cc2c1` [Compound 29, 4–(2-Chloro-6-methoxyquinolin-3-yl)-6–(4-chlorophenyl)pyrimidin-2-amine] gave a melting point of 195 to 196 °C. In data set [1] (setting [2]), the IC50 fell in the range of 10.2 to 17.6 µM. In the data set on MCF-7, the IC50 is 17.6 ± 0.8 µM. Besides, the IC50 with HepG-2 (Homo sapiens, HepG2, MTT) was 16.5 ± 0.8 µM. In the data set on HCT-116 (Homo sapiens, HCT-116, MTT), the IC50 worked out at 13 ± 0.6 µM.

With `COc1ccc2nc(Cl)c(C3CC(c4cc(OC)c(OC)c(OC)c4)=NO3)cc2c1` (stereo not shown) [Compound 13, 5–(2-Chloro-6-methoxyquinolin-3-yl)-3–(3,4,5-trimethoxyphenyl)-4,5-dihydroisoxazole], the melting point lay in the range of 133 to 134 °C. The IC50 in the data set on MCF-7 was found to be 17 ± 1.2 µM. The IC50 with HepG-2 (Homo sapiens, HepG2, MTT) is 9.96 µM. In addition, in the data set on HepG-2 (MTT), the IC50 turned out to be 12.9 ± 0.6 µM. Moreover, the IC50 in the data set on HCT-116 (Homo sapiens, HCT-116, MTT) worked out at 12.9 µM. In the data set with HCT-116 (MTT), the IC50 is 9.96 ± 0.3 µM.

In turn, `COc1ccc2nc(Cl)c(C3CC(c4cc(OC)c(OC)c(OC)c4)=NN3C(N)=S)cc2c1` (stereo not shown) [Compound 16, 5–(2-Chloro-6-methoxyquinolin-3-yl)-3–(3,4,5-trimethoxyphenyl)-4,5-dihydro-1H-pyrazole-1-carbothioamide] came in with a melting point of 121 to 122 °C. Besides, the IC50 in the data set with MCF-7 was 13.9 ± 0.3 µM. Further, the IC50 in the data set with HepG-2 (Homo sapiens, HepG2, MTT) worked out at 8.87 µM. Besides, in the data set on HepG-2 (MTT), the IC50 amounted to 9.3 ± 0.3 µM. Also, the IC50 in the data set on HCT-116 (Homo sapiens, HCT-116, MTT) was found to be 9.3 µM. Also, the IC50 in the data set with HCT-116 (MTT) came to 8.87 ± 0.3 µM.

For the compound `COc1ccc2nc(Cl)c(C3CC(c4ccc(N)cc4)=NO3)cc2c1` (stereo not shown) [Compound 12, 4-[5–(2-Chloro-6-methoxyquinolin-3-yl)-4,5-dihydroisoxazol-3-yl]aniline], the melting point was 127 to 128 °C. For the same compound, in data set [1] (setting [2]), the concentration for half-maximal inhibition (IC50) lay within 22.4 to 45.5 µM. Also, in the data set with MCF-7, the IC50 was 45.5 ± 2.8 µM. The IC50 in the data set with HepG-2 (Homo sapiens, HepG2, MTT) came out at 35.4 ± 1.8 µM. Also, the IC50 in the data set with HCT-116 (Homo sapiens, HCT-116, MTT) stood at 40.5 ± 2.4 µM.

For the compound `COc1ccc2nc(Cl)c(-c3cc(-c4ccc(N)cc4)nc(N)n3)cc2c1` [Compound 30, 4–(4-Aminophenyl)-6–(2-chloro-6-methoxyquinolin-3-yl)pyrimidin-2-amine], the melting point was in the range of 175 to 176 °C. Besides, the IC50 in data set [1] (setting [2]) lay within 22.4 to 45.5 µM. Besides, the IC50 in the data set with MCF-7 was determined as 33.8 ± 1.5 µM. In addition, the IC50 with HepG-2 (Homo sapiens, HepG2, MTT) amounted to 28.5 ± 1.3 µM. In addition, the IC50 with HCT-116 (Homo sapiens, HCT-116, MTT) is 32.7 ± 0.9 µM.
